# Assay results published in patent publication EP0194571A1, “Heterocyclic disulfides, process for their preparation and pharmaceutical preparations containing them” (HOECHST AKTIENGESELLSCHAFT, priority 1985, dated 1986).
# Tests used:
# Format in all cases: in vivo, NMRI-Mäuse
# [1] = tested on: Maus-Peritonealmakrophagen; assay: Activation of mononuclear phagocytes: release of lysosomal hydrolases (exocytosis) by peritoneal macrophages from treated mice; settings: lysosomal enzyme activity, relative to maximal activation by compound of Beispiel 8 = 100 %; 100 mg/kg i.p.
# Procedure: (§1) Hier wurde der Einfluß der nach Ausführungsbeispiel 8 erhaltenen Prüfsubstanz auf die Stimulation von Peritonealmakrophagen bei 6- 8 Wochen alten NMRI-Mäusen untersucht. Mäuseweibchen erhielten auf parenteralem oder oralem Wege die Prüfsubstanz in einer Dosis von 25 mg/kg, 50 mg/kg, 100 mg/kg und 200 mg/kg. Der Kontrollgruppe wurde gepufferte Kochsalzlösung verabreicht. Drei Tage nach den Injektionen wurden die Mäuse getötet, und es wurden die Peritonealmakrophagen der Tiere auf ihren Aktivierungszustand hin untersucht. Als Maß der Makrophagenaktivierung wurde zum einen die Sekretion der lyosomalen Enzyme (ß-Galactosidase, ß-Glucuronidase, N-Acetyl-ß-D-Glucosaminidase) bestimmt. Auf der anderen Seite konnte in vergleichbaren Makrophagenkulturen die Pinozytose durch die Aufnahme von kolloidalem Gold (^19^8Au) - wie sie dem Fachmann bekannt ist - untersucht werden. Die Höhe des oxidativen Stoffwechsels bei Makrophagen gilt als ein weiteres Maß für ihren Aktivierungszustand. Gemessen wird diese Aktivität unter Zuhilfenahme des Biolumaten durch Bestimmung der Chemolumineszenz.
# (§2) Zu diesem Zweck wurden entweder in Petrischalen von 30 mm Durchmesser 3 x 10^6 Makrophagen mit 1 ml TC 199-Kulturmedium oder aber 10^6 Makrophagen mit 100 µl in Rundbogen-Polyäthylen-Röhrchen (zur Bestimmung der Chemolumineszenz) bei 5 % G02 und 37°C kultiviert.
# (§3) Nach einstündiger Bebrütung wurden die Kulturen gewaschen, um schwimmende Zellen zu entfernen. Die Chemolumineszenz (Röhrchenkultur) wurde dann direkt bestimmt, während die Petrischalen erneut 24 Stunden bei 37°C bebrütet wurden und danach die Enzym- und Pinozytoseaktivität in den Kulturen bestimmt wurde. Es wurden die nachstehenden Ergebnisse erzielt.
# Aus der Tabelle 3 ist zu entnehmen, daß Makrophagen von Kontrollmäusen nur geringe Mengen an lysosomalen Enzymen (ß-Glucuronidase, ß-Galactosidase, N-Acetyl-ß-D-Glucosaminidase) in den Kulturüberstand abgeben. Mononukleare Phagozyten von Mäusen, die parenteral oder oral mit der Prüfsubstanz 72 Stunden behandelt wurde, sezernieren die o.a. sauren Hydrolasen (ß-Glu, ß-Gal, N-Ac-Glu) deutlich mehr und weisen damit eine Dosiswirkungskurve auf, die bei allen gemessenen Enzymen eine Überlegenheit gegenüber den Kontrollen erkennen läßt. Es ist ersichtlich, daß die Prüfsubstanz eine stimulierende Wirkung auf die Makrophagenaktivität besitzt und zur Erhöhung der Enzymfreisetzung beiträgt.
# (§4) Wie im Experiment 2 beschrieben, wurden NMRI-Mäuse mit den erfindungsgemäßen Verbindungen behandelt.
# (§5) Als Test zur Erfassung der Immunstimulation wurde die Funktion der Makrophagen (Chemolumineszenz und Enzymaktivität) überprüft.
# (§6) Tabelle 8 zeigt die relative Wirksamkeit der Prüfsubstanzen bezogen auf die Verbindung aus Beispiel 8, deren maximale Aktivierung (Differenz zwischen Kontrolle und Stimulation) 100 % entspricht. Der Tabelle ist zu entnehmen, daß im Vergleich zu Makrophagen aus unbehandelten Tieren, diese Zellen auch durch alle Prüfsubstanzen in ihrer Chemolumineszenzreaktion stark stimuliert und in ihrem Gehalt an lysosomalen Enzymen deutlich erhöht waren.
# [2] = tested on: Maus-Peritonealmakrophagen; assay: Activation of mononuclear phagocytes: oxidative metabolism (chemiluminescence) of peritoneal macrophages from treated mice; settings: relative to maximal activation by compound of Beispiel 8 = 100 %; 100 mg/kg i.p.
# Procedure: as §1, §2, §3
# Die parenterale sowie die orale Behandlung von NMRI-Mäusen mit der gemäß Beispiel 8 hergestellten Prüfsubstanz stimuliert die Makrophagenaktivität und hat damit eine immunitätstimulierende Wirkung. So wird der oxidative Stoffwechsel bei Makrophagen mit der Generierung von Sauerstoffradikalen und dem damit verbundenen meßbaren Licht deutlich erhöht. Bei Dosierungen von 25 mg/kg aufwärts kommt es zu einer dosisabhänigen Steigerung der Makrophagenaktivität sowohl bei parenteraler als auch oraler Applikation.
# as §4, §5, §6
# [3] = tested on: zelluläre Immunantwort (DTH-Reaktion) gegen Schafserythrozyten; assay: Delayed type hypersensitivity (DTH) reaction against sheep erythrocytes, foot swelling in mice; settings: relative to maximal activation by compound of Beispiel 8 = 100 %, 1 x i.p. Tag 0
Compound,Makrophagenaktivität Exozytose [1],Makrophagenaktivität Chemolumineszenz [2],DTH-Reaktion (SRBC) ([3]; Dosis 20 mg/kg),DTH-Reaktion (SRBC) ([3]; Dosis 200 mg/kg),DTH-Reaktion (SRBC) ([3]; Dosis 100 mg/kg),DTH-Reaktion (SRBC) ([3]; Dosis 10 mg/kg)
"Oc1nc(SSc2nc(O)nn2-c2ccccc2)n(-c2ccccc2)n1 [Beispiel 1, Bis-(3-Hydroxy-1-phenyl-1,2,4-triazol-5-yl)-disulfid]",48%,30%,–,–,–,–
"O=C(O)c1ccc2nc(SSc3nc4ccc(C(=O)O)cc4[nH]3)[nH]c2c1 [Beispiel 2, Bis-(5-Carboxy-benzimidazol-2-yl)-disulfid]",53%,72%,88%,–,–,–
C=C(Cl)Cn1c(SSc2nnc(O)c(=O)n2CC(=C)Cl)nnc(O)c1=O [Beispiel 5],45%,37%,–,61%,–,–
Cn1nc(O)c(=O)nc1SSc1nc(=O)c(O)nn1C [Beispiel 6],33%,26%,–,–,100%,–
"O=C(O)Cc1csc(SSc2nc(CC(=O)O)cs2)n1 [Beispiel 10, Bis-(4-Carboxymethyl-1,3-thiazol-2-yl)-disulfid]",21%,66%,–,–,–,112%
"O=C(O)c1cnc(SSc2ncc(C(=O)O)s2)s1 [Beispiel 12, Bis-(5-Carboxy-1,3-thiazol-2-yl)-disulfid]",54%,39%,–,–,96%,–
Cc1nc(SSc2nc(C)c(C(=O)O)s2)sc1C(=O)O [Beispiel 13],77%,81%,–,147%,–,–
"Cc1sc(SSc2nc(CC(=O)O)c(C)s2)nc1CC(=O)O [Beispiel 14, Bis-(4-Carboxymethyl-5-methyl-thiazol-2-yl)-disulfid]",93%,97%,–,–,118%,–
